Laboratory results reported in patent publication US20260224460A1, “A PERSONAL CARE COMPOSITION” (Conopco, Inc., d/b/a UNILEVER, priority 2023, published 2026).

Columns and labels:
[1] = system: Collagen1 gene expression (COL1A1) in WS1 cells; test: Collagen1 (COL1A1) gene expression by real time PCR in WS1 human dermal fibroblasts; type: cell-based; settings: Table 1, 24 hours treatment, actives in wt %, fold change vs untreated control (1.0), normalized to GAPDH, delta delta Ct
Protocol: Experiments were carried out to study gene expression of Collagen1 with actives as shown in Table-1 individually and in combination and the data is 12ummarized therein. The methodology used to measure the gene expression is given below:
WS1 cells (human dermal fibroblasts) were grown and maintained in high glucose DMEM (HIMEDIA cat No AL219A) supplemented with 0.03 mM Calcium chloride, 1 mM sodium pyruvate and 10% FBS (Fetal Bovine Serum) at 37° C. with 5% CO2. 80% confluent cells were trypsinized and plated in 24 well plate at a density of 50,000 cells/well. The cells were incubated at 37° C. with 5% CO2 for 24 hours. Post incubation, the cells were treated with arginine (0.005%) and varying concentration of pimelic acid, dimethyl pimelate, suberic acid. Azelaic acid (0.0001, 0.001, 0.005%). 24 hours after treatment the cells were harvested for RNA extraction. RNA was extracted using Qiagen RNA extraction kit (Cat No: 74004) as per the instructions given in the kit. After extraction of RNA, cDNA synthesis was done using iscript cDNA synthesis kit (Biorad Cat no: 1708890). […] of RNA was used for cDNA synthesis. cDNA template synthesized was used for gene expression studies.
Quantification of collagen gene expression was carried out using real time PCR. […] of cDNA was used for setting up the reaction. The PCR reaction mix had […] each of forward and reverse primer, […] of PCR master mix (Sigma Cat No: KCQS00). Amplification was carried out at 95° C. for 30 seconds as the first step, followed by 40 cycles of qRT-PCR at 95° C. for 5 seconds, and at 60° C. for 20 seconds. mRNA expression was measured in triplicate and was normalized to GAPDH (glyceraldehyde 3-phosphate dehydrogenase) expression levels. The relative quantification was done using delta delta Ct method. The primers used in the study are COL1A1 forward primer 5′-[…]-3′, COL1A1 reverse primer 5′-[…]-3′, GAPDH forward primer 5′-[…]-3′, reverse primer 5′-[…]-3′. The relative quantification of gene expression was done after normalization using house keeping gene (GAPDH) and comparing with untreated control.
The fold change of gene ‘expression obtaine’ from cells treated with’ combination of test actives were compared with the gene expression obtained from cells treated with individual ingredients.

[2] = system: Collagen1 gene expression (COL1A1) in WS1 cells; test: as above; type: cell-based; settings: 24 hours treatment, actives in wt %, fold change vs untreated control (1.0), normalized to GAPDH
[3] = Table 3 (additional weight ratios 2:1, 4:1, 25:1)

SMILES | Gene expression (Collagen1) [1] | Gene expression (Collagen1) ([2]; Table 2 (lysine series)) | Gene expression (Collagen1) [2, 3]
N=C(N)NCCCC(N)C(=O)O (centres unmarked) [Example A, Arginine] | 1.9 | – | –
O=C(O)CCCCCC(=O)O [Example B1, Pimelic acid] | 1.1 | – | –
O=C(O)CCCCCC(=O)O [Example B2, Pimelic acid] | 2.8 | – | –
O=C(O)CCCCCC(=O)O [Example B3, Pimelic acid] | 3.2 | – | –
COC(=O)CCCCCC(=O)OC [Example C1, Dimethyl pimelate] | 1.2 | – | –
COC(=O)CCCCCC(=O)OC [Example C2, Dimethyl pimelate] | 2.5 | – | –
COC(=O)CCCCCC(=O)OC [Example C3, Dimethyl pimelate] | 3.8 | – | –
O=C(O)CCCCCCC(=O)O [Example D1, Suberic acid] | 1.6 | – | –
O=C(O)CCCCCCC(=O)O [Example D2, Suberic acid] | 2.9 | – | –
O=C(O)CCCCCCC(=O)O [Example D3, Suberic acid] | 1.3 | – | –
O=C(O)CCCCCCCC(=O)O [Example E1, Azeleic acid] | 1.4 | – | –
O=C(O)CCCCCCCC(=O)O [Example E2, Azeleic acid] | 1.6 | – | –
O=C(O)CCCCCCCC(=O)O [Example E3, Azeleic acid] | 1.9 | – | –
O=C(O)CCCCCC(=O)O [Example G1, Pimelic acid] | – | 1.1 | –
O=C(O)CCCCCC(=O)O [Example G2, Pimelic acid] | – | 2.4 | –
O=C(O)CCCCCC(=O)O [Example G3, Pimelic acid] | – | 3.0 | –
COC(=O)CCCCCC(=O)OC [Example H1, Dimethyl pimelate] | – | 1.2 | –
COC(=O)CCCCCC(=O)OC [Example H2, Dimethyl pimelate] | – | 2.4 | –
COC(=O)CCCCCC(=O)OC [Example H3, Dimethyl pimelate] | – | 3.7 | –
O=C(O)CCCCCCC(=O)O [Example J1, Suberic acid] | – | 1.7 | –
O=C(O)CCCCCCC(=O)O [Example J2, Suberic acid] | – | 2.8 | –

SMILES | Gene expression (Collagen1) [1] | Gene expression (Collagen1) ([2]; Table 2 (lysine series)) | Gene expression (Collagen1) [2, 3]
O=C(O)CCCCCCC(=O)O [Example J3, Suberic acid] | – | 1.4 | –
O=C(O)CCCCCCCC(=O)O [Example K1, Azeleic acid] | – | 1.3 | –
O=C(O)CCCCCCCC(=O)O [Example K2, Azeleic acid] | – | 1.6 | –
O=C(O)CCCCCCCC(=O)O [Example K3, Azeleic acid] | – | 2.0 | –
N=C(N)NCCCC(N)C(=O)O (centres unmarked) [Example L1, Arginine] | – | – | 1.5
N=C(N)NCCCC(N)C(=O)O (centres unmarked) [Example L2, Arginine] | – | – | 3.3
N=C(N)NCCCC(N)C(=O)O (centres unmarked) [Example L3, Arginine] | – | – | 4.4
O=C(O)CCCCCC(=O)O [Example M1, Pimelic acid] | – | – | 3.0
O=C(O)CCCCCC(=O)O [Example M2, Pimelic acid] | – | – | 3.9
O=C(O)CCCCCC(=O)O [Example M3, Pimelic acid] | – | – | 2.7
COC(=O)CCCCCC(=O)OC [Example N1, Dimethyl pimelate] | – | – | 2.2
COC(=O)CCCCCC(=O)OC [Example N2, Dimethyl pimelate] | – | – | 3.5
COC(=O)CCCCCC(=O)OC [Example N3, Dimethyl pimelate] | – | – | 2.5
O=C(O)CCCCCCC(=O)O [Example O1, Suberic acid] | – | – | 2.7
O=C(O)CCCCCCC(=O)O [Example O2, Suberic acid] | – | – | 3.7
O=C(O)CCCCCCC(=O)O [Example O3, Suberic acid] | – | – | 2.5
O=C(O)CCCCCCCC(=O)O [Example P1, Azelaic acid] | – | – | 1.7
O=C(O)CCCCCCCC(=O)O [Example P2, Azelaic acid] | – | – | 2.4
O=C(O)CCCCCCCC(=O)O [Example P3, Azelaic acid] | – | – | 1.6
NCCCC[C@H](N)C(=O)O [F, Lysine] | – | 0.8 | –
